From patent US8158621B2, “Methods of treating or preventing autoimmune diseases with 2,4-pyrimidinediamine compounds” (Rigel Pharmaceuticals, Inc., priority 2002, dated 2012)

Each molecule was assayed on Human Jurkat T-cells (clone N) (assay: Jurkat T-cell activation (anti-TCR, CD69 upregulation)). Conditions: not given.
Format: cell-based
How it was run: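 Readout is CD69 upregulation by flow cytometry (anti-CD69-APC, 20 min at 4 °C) after 20 h anti-TCR (C305, 500 ng/ml) stimulation at 37 °C.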

| SMILES | IC50 |
| --- | --- |
| Cn1cc2cc(Nc3ncc(F)c(Nc4cccc(O)c4)n3)ccc2n1 [Compound R935299] | 0.824 µM |
| CC(C)Oc1ccc(Nc2nc(Nc3cccc(OCC(=O)O)c3)ncc2F)cc1 [Compound R926731] | > 10 µM |
| CC(C)Oc1ccc(Nc2ncc(F)c(Nc3ccc(OCc4nc(-c5ccccc5)no4)cc3)n2)cc1 [Compound R935139] | 11 µM |
| Cn1nnc(COc2ccc(Nc3nccc(Nc4cccc(O)c4)n3)cc2)n1 [Compound R920910] | 2.38 µM |
| O=C(CNc1cccc(Nc2ncc(F)c(Nc3ccc4c(c3)OCCO4)n2)c1)N1CCNCC1 [Compound R950197] | 2.58 µM |
| CNC(=O)COc1cccc(Nc2ncc(F)c(Nc3ccc4[nH]ccc4c3)n2)c1 [Compound R926931] | 2.93 µM |
| CCOC(=O)COc1ccc(Nc2nc(Nc3ccc(OCC(=O)OCC)cc3)c(NC(=O)NC(=O)CCl)c(C(=O)OCC)n2)cc1 [Compound R926589] | > 10 µM |
| Nc1cccc(Nc2nc(Nc3cccc(NCCOCc4ccccc4)c3)ncc2F)c1 [Compound R950176] | > 10 µM |
| Cc1nc(COc2cccc(Nc3ncc(F)c(Nc4ccc5c(c4)OCCO5)n3)c2)no1 [Compound R945128] | 4.31 µM |
| Cc1nc(COc2cccc(Nc3nc(Nc4cccc(O)c4)ncc3F)c2)no1 [Compound R945132] | 20.2 µM |
| O=C(CNc1cccc(Nc2ncc(F)c(Nc3cccc(O)c3)n2)c1)N1CCOCC1 [Compound R950221] | 20.3 µM |
| O=C(O)COc1ccc(Nc2ncc(F)c(Nc3ccc4c(c3)OCCO4)n2)cc1 [Compound R926238] | > 10 µM |
| CCOC(=O)C(C)(C)c1ccc(Nc2nc(Nc3ccc4c(c3)OCCO4)ncc2F)cc1 [Compound R935148] | > 10 µM |
| Cc1cc(Nc2nc(Nc3cccc(OCC(=O)N4CCOCC4)c3)ncc2F)cc(Cl)c1O [Compound R940265] | 5.56 µM |
| O=C(COc1cccc(Nc2ncc(F)c(Nc3cc(Cl)c(O)c(Cl)c3)n2)c1)N1CCNCC1 [Compound R950188] | 17.9 µM |
| CNC(=O)COc1cccc(Nc2ncc(F)c(Nc3cccc(C(C)(C)C)c3)n2)c1 [Compound R940276] | 2.53 µM |
| CC(C)Oc1ccc(Nc2nc(Nc3ccc4oc(C(=O)N5CCCC5)cc4c3)ncc2F)cc1 [Compound R926703] | 7.87 µM |
| O=C(c1cc2cc(Nc3ncc(F)c(Nc4ccc5c(c4)OCCO5)n3)ccc2o1)N1CCNCC1 [Compound R926499] | 0.56 µM |
| Cn1nnnc1COc1ccc(Nc2ncc(F)c(Nc3cccc(O)c3)n2)cc1 [Compound R920861] | 3.28 µM |
| CNC(=O)COc1cccc(Nc2ncc(F)c(Nc3ccc(OCCC(=O)OC)cc3)n2)c1 [Compound R950346] | 1.95 µM |

Second part, the molecule after the results:

| IC50 | SMILES |
| --- | --- |
| 2.14 µM | CCOc1ccc(Nc2nc(Nc3cccc(OCC(=O)NC)c3)ncc2F)cc1 [Compound R926827] |
| > 10 µM | CCOC(=O)COc1ccc(Nc2ncc(Br)c(Nc3ccc(OCC(=O)OCC)cc3)n2)cc1 [Compound R925779] |
| 1.45 µM | Fc1cnc(Nc2ccc3[nH]ncc3c2)nc1Nc1ccc2c(c1)OCCO2 [Compound R935198] |
| 13.1 µM | COC(=O)COc1cc(Nc2ncc(F)c(Nc3cccc(O)c3)n2)cc(OCC(=O)OC)c1 [Compound R926926] |
| > 10 µM | O=C(O)COc1cccc(Nc2ncc(F)c(Nc3cccc(O)c3)n2)c1 [Compound R945126] |
| > 10 µM | COC(=O)COc1ccc(Nc2ncc(F)c(Nc3ccc(OCC(=O)OC)cc3)n2)cc1 [Compound R926240] |
| 4.21 µM | CNC(=O)COc1cccc(Nc2ncc(F)c(Nc3cc(OC)cc(OC)c3)n2)c1 [Compound R926796] |
| 13.3 µM | CNC(=O)COc1cccc(Nc2ncc(F)c(Nc3ccc4c(c3)C(=O)CCC4)n2)c1 [Compound R926947] |
| 4.83 µM | COC(=O)Cn1ncc2cc(Nc3nc(Nc4ccc5c(c4)OCCO5)ncc3F)ccc21 [Compound R935249] |
| > 10 µM | CCOC(=O)c1cnc(N[C@@H](Cc2ccccc2)C(=O)OCC)nc1N[C@@H](Cc1ccccc1)C(=O)OCC [Compound R926526] |
| 1.99 µM | O=C(CNc1cccc(Nc2ncc(F)c(Nc3ccc4c(c3)OCCO4)n2)c1)NCCNCc1ccccc1 [Compound R950198] |
| > 10 µM | COC(=O)Cn1ncc2cc(Nc3ncc(F)c(Nc4cccc(O)c4)n3)ccc21 [Compound R935237] |
| 7.42 µM | CNC(=O)Cn1ncc2ccc(Nc3nc(Nc4ccc5c(c4)OCCO5)ncc3F)cc21 [Compound R935225] |
| 5.07 µM | CON=C(N)COc1ccc(Nc2ncc(F)c(Nc3cccc(O)c3)n2)cc1 [Compound R945167] |
| 4.37 µM | Cc1nc(COc2cccc(Nc3ncc(F)c(Nc4ccc5oc(C(N)=O)cc5c4)n3)c2)no1 [Compound R945135] |
| > 10 µM | CCOC(=O)COc1ccc(Nc2nc(Nc3ccc(OCC(=O)OCC)cc3)c(NC(=O)NC(=O)OCC)c(C(=O)OCC)n2)cc1 [Compound R926586] |

Same assay, conditions: Homo sapiens

| SMILES | IC50 |
| --- | --- |
| O=[N+]([O-])c1cccc(Nc2ncc(F)c(Nc3cccc([N+](=O)[O-])c3)n2)c1 [Compound R950160] | > 10 µM |
| O=[N+]([O-])c1cc(Nc2ncc(F)c(Nc3ccc(F)c([N+](=O)[O-])c3)n2)ccc1F [Compound R950148] | > 10 µM |

Same assay, conditions: Homo sapiens, Jurkat

| SMILES | IC50 |
| --- | --- |
| Nc1cc(Nc2ncc(F)c(Nc3ccc(F)c(N)c3)n2)ccc1F [Compound R950159] | 8.45 µM |
| OCCOc1cccc(Nc2nc(Nc3cccc(O)c3)ncc2F)c1 [Compound R935170] | 6.03 µM |
| Fc1cc(F)cc(Nc2ncc(F)c(Nc3ccc4c(c3)OCCO4)n2)c1 [Compound R926898] | > 10 µM |
| Oc1cccc(Nc2nc(Nc3cccc(-c4cnco4)c3)ncc2F)c1 [Compound R926831] | 1.27 µM |
| Cc1ccc(Nc2ncc(F)c(Nc3ccc(C)c(N)c3)n2)cc1N [Compound R950129] | 6.88 µM |
| OC(CNc1ncc(F)c(NCC(O)c2ccccc2)n1)c1ccccc1 (stereo not drawn) [Compound R925768] | > 10 µM |
| CC(C)Oc1cccc(Nc2ncc(F)c(Nc3cccc(N)c3)n2)c1 [Compound R950164] | 18.2 µM |
| Oc1cccc(Nc2nc(NCCN3CCN(Cc4ccccc4)CC3)ncc2F)c1 [Compound R940261] | 10.9 µM |
| CC(C)Oc1ccc(Nc2nc(Nc3ccc(C(C)(C)CO)cc3)ncc2F)cc1 [Compound R935151] | 1.96 µM |
| Fc1cnc(Nc2cccnc2)nc1Nc1ccc2c(c1)OCCO2 [Compound R920668] | > 10 µM |

Other lines, results leading:

| IC50 | SMILES |
| --- | --- |
| > 10 µM | COc1cc(-c2ccccc2)c(C)cc1Nc1ncc(Br)c(Nc2cc(C)c(-c3ccccc3)cc2OC)n1 [Compound R925801] |
| 4.64 µM | COC(=O)c1cc(N)cc(Nc2ccnc(Nc3cc(N)cc(C(=O)OC)c3)n2)c1 [Compound R950132] |
| > 10 µM | Fc1ccc(Nc2ncc(F)c(Nc3ccc4c(c3)OCCO4)n2)cc1Cl [Compound R926218] |
| > 10 µM | Oc1cccc(Nc2nc(NCc3cccnc3)ncc2F)c1 [Compound R945165] |
| > 10 µM | CC(C)c1ccc(Nc2ncc(F)c(Nc3ccc4c(c3)OCCO4)n2)cc1 [Compound R926790] |
| > 10 µM | Nc1cc(Nc2ccnc(Nc3ccc(Nc4ccccc4)c(N)c3)n2)ccc1Nc1ccccc1 [Compound R950123] |
| > 10 µM | CCOC(=O)c1cccc(Nc2ncc(F)c(Nc3cccc(C(=O)OCC)c3)n2)c1 [Compound R926228] |
| 7.07 µM | CC(C)(CO)c1ccc(Nc2ncc(F)c(Nc3cccc(O)c3)n2)cc1 [Compound R935153] |
| 7.5 µM | N#Cc1cnc(Nc2cccc(O)c2)nc1Nc1cccc(O)c1 [Compound R925774] |
